Measured values taken from patent publication US8809270B2, “Method for reducing cardiovascular morbidity and mortality in prediaetic patients and patients with type 2 diabetes” (priority 2003, dated 2014).

Experiments:
[1] = system: individuals with IGT, IFG, or mild untreated type 2 diabetes; assay: Study HOE901/1021: blood glucose response to 15-minute stationary bicycle exercise; parameters: species or system human; conditions: in vivo
Experimental: The study was conducted at three centers in the US. After screening tests, including fasting plasma glucose (FPG) and post prandial plasma glucose (PPG; two hours following a 75 g oral glucose load) for classification as IGT, IFG, diabetic, or normal glucose tolerance (NGT), and after satisfying other inclusion criteria including the ability to perform moderate exercise on a stationary bicycle, subjects were admitted to an inpatient study center. They were confined there for the next 15 days, during which time they were randomly assigned to receive either HOE901 once per day subcutaneously in the evening, or matching placebo (saline) injections in a 3:1 randomization (HOE901:placebo). Baseline assessments included a 5-point (before each meal, bedtime, and 3 AM) and 8-point (5-point plus readings 2 hours after each meal) blood glucose profile on separate days, and 15 minutes of exercise on a stationary bicycle at a level of exertion of “somewhat hard” on the Borg scale with blood glucose values monitored during and for 3 hours following the exercise. Each subject received a 25 kCal/kg diet while confined in the study center. Capillary whole blood glucose values were recorded on HemoCue devices. Episodes of hypoglycemia (blood glucose 50 mg/dL [2.8 mM] or symptoms with blood glucose 65 mg/dL [3.6 mM]) were recorded. […]

[2] = system: individuals with IGT, IFG, or mild untreated type 2 diabetes; assay: Study HOE901/1021: adverse events and hypoglycemia; format: in vivo, human
Experimental: The study was conducted at three centers in the US. After screening tests, including fasting plasma glucose (FPG) and post prandial plasma glucose (PPG; two hours following a 75 g oral glucose load) for classification as IGT, IFG, diabetic, or normal glucose tolerance (NGT), and after satisfying other inclusion criteria including the ability to perform moderate exercise on a stationary bicycle, subjects were admitted to an inpatient study center. They were confined there for the next 15 days, during which time they were randomly assigned to receive either HOE901 once per day subcutaneously in the evening, or matching placebo (saline) injections in a 3:1 randomization (HOE901:placebo). Baseline assessments included a 5-point (before each meal, bedtime, and 3 AM) and 8-point (5-point plus readings 2 hours after each meal) blood glucose profile on separate days, and 15 minutes of exercise on a stationary bicycle at a level of exertion of “somewhat hard” on the Borg scale with blood glucose values monitored during and for 3 hours following the exercise. Each subject received a 25 kCal/kg diet while confined in the study center. Capillary whole blood glucose values were recorded on HemoCue devices. Episodes of hypoglycemia (blood glucose 50 mg/dL [2.8 mM] or symptoms with blood glucose 65 mg/dL [3.6 mM]) were recorded.
Treatment-emergent adverse events (TEAEs) occurred in 10 subjects in the HOE901 group (16 events) vs. 2 in the placebo group (5 events). Each event occurred in only 1 individual except for headache, which occurred in 3 HOE901 subjects. Only 2 HOE901 subjects and 1 placebo subject had events that were considered by investigators as possibly related to study drug. The HOE901 events were 2 episodes of headache, and one of hypoglycemia. The two headaches occurred in subjects who had hypoglycemic events on the same days and at approximately the same time as the headaches. […] Subject 3011 (who reported dizziness as an adverse event during screening) was removed from the study by the sponsor prior to receiving any study drug dose because of hypoglycemia that occurred during screening.
Only mild hypoglycemia occurred in 4 out of 16 subjects treated with HOE901 in this study. These hypoglycemic events generally occurred before lunch or supper, and resolved promptly with oral caloric intake. No episodes of hypoglycemia occurred in relation to exercise. Although the calorie-restricted diet subjects consumed during this study doubtless played a role in the occurrence of these events, the diet was typical in size for what is recommended to these frequently overweight individuals. […] Hypoglycemia can occur, but is manageable not related to exercise, and detectable with the aid of home glucose monitoring.

[3] = system: type 2 diabetic patients already treated with other oral antidiabetic drugs; assay: Study 4014: lipid data, LANTUS versus rosiglitazone; format: in vivo, human; parameters: Triglycerides % reduction from baseline / Triglycerides % reduction from baseline, LANTUS-AVANDIA / Non-HDL Cholesterol Total % reduction from baseline: concentration or dose not given beside the values; Triglycerides Baseline / Triglycerides Endpoint: unit not given beside the values; conditions: for Triglycerides % reduction from baseline, LANTUS-AVANDIA / Triglycerides change at endpoint, LANTUS-AVANDIA: LANTUS minus AVANDIA
[4] = Multiple-dose pharmacokinetic study (Study 1020); format: in vivo; conditions: 2 days of treatment
Source text: Treatment with Lantus® LANTUS (insulin glargine) insulin offers the possibility of a smooth, daylong, blood insulin profile without a definite peak that can be finely titrated to lower subjects' FPG in a durable manner, while minimizing the risk of hypoglycemia at other times of day.

[5] = in vivo; cited from earlier work

insulin glargine [LANTUS]
hypoglycemic events during exercise [1]: no hypoglycemic events
Treatment-emergent adverse events (TEAEs), events ([2]; in vivo): 16 events
Treatment-emergent adverse events (TEAEs), subjects ([2]; in vivo): 10 subjects
headache ([2]; in vivo): 3 subjects
safety and tolerability ([2]; in vivo): safe and well tolerated
serious adverse events ([2]; in vivo): no serious adverse events
subjects with events considered by investigators as possibly related to study drug ([2]; in vivo): 2 subjects
mild hypoglycemia ([2]; out of 16 subjects treated): 4 subjects
HDL Baseline ([3]; TG baseline range 200-500): 38
HDL Endpoint ([3]; TG baseline range 200-500): 40
LDL Baseline ([3]; TG baseline range 200-500): 115
LDL Endpoint ([3]; TG baseline range 200-500): 111
Non-HDL Cholesterol Total Baseline ([3]; TG baseline range 200-500): 168
Non-HDL Cholesterol Total Endpoint ([3]; TG baseline range 200-500): 152
Triglycerides % reduction from baseline ([3]; TG baseline range 200-500): 18%
Triglycerides Baseline ([3]; TG baseline range 200-500): 285
Triglycerides Endpoint ([3]; TG baseline range 200-500): 234
Triglycerides % reduction from baseline, LANTUS-AVANDIA ([3]; TG baseline range 200-500): 18%
Triglycerides change at endpoint, LANTUS-AVANDIA ([3]; TG baseline range 200-500): 47.7
HDL Baseline ([3]; TG baseline range 300-500): 32
HDL Endpoint ([3]; TG baseline range 300-500): 34
Non-HDL Cholesterol Total % reduction from baseline ([3]; TG baseline range 300-500): 4%
Non-HDL Cholesterol Total Baseline ([3]; TG baseline range 300-500): 156
Non-HDL Cholesterol Total Endpoint ([3]; TG baseline range 300-500): 150
Triglycerides % reduction from baseline ([3]; TG baseline range 300-500): 27%
Triglycerides Baseline ([3]; TG baseline range 300-500): 380
Triglycerides Endpoint ([3]; TG baseline range 300-500): 277
Triglycerides % reduction from baseline, LANTUS-AVANDIA ([3]; TG baseline range 300-500): 18%
Triglycerides change at endpoint, LANTUS-AVANDIA ([3]; TG baseline range 300-500): 68.5
HDL Baseline ([3]; TG baseline range 500-1000): 28
HDL Endpoint ([3]; TG baseline range 500-1000): 29
Non-HDL Cholesterol Total Baseline ([3]; TG baseline range 500-1000): 178
Non-HDL Cholesterol Total Endpoint ([3]; TG baseline range 500-1000): 153
Triglycerides Baseline ([3]; TG baseline range 500-1000): 817
Triglycerides Endpoint ([3]; TG baseline range 500-1000): 494
doses to reach steady-state levels [4]: 2 doses
duration of action [5]: up to 24 hour
